The source of these data is patent publication US12570667B2, “Compounds with antibacterial and anti viral activities” (priority 2020, dated 2026).

For data set [1], the system named is Polio Virus. The note with it: read-out: effective concentration (EC50), inhibition of viral RNA synthesis; cited from earlier work.
Data set [2] has as its system S. aureus. Put plainly: Antibacterial activity by spread plate-disc diffusion method. The note with it: 20 μl from 1 mg/ml stock per disc, 37° C., 24 h, "0" indicates no antibacterial activity. In kind it is cell-based. As to the method: (§1) In an embodiment, the antibacterial activity of nigericin and compounds of formula I are determined by the Disc diffusion method. […] The compounds of formula I are found to be inhibiting both gram-positive and gram-negative bacteria.
(§2) Nigericin along with compounds of formula I were tested against Gram-positive (S. aureus) and Gram-negative (E. coli) test organisms by spread plate-disc diffusion method. 20 μl from 1 mg/ml concentration stock was used per disc for each test compound and plated were incubated at 37° C. for 24 h. After the incubation period zone of inhibition was measured.

Data set [3] has as its system E. coli. Described as above. In kind it is cell-based. Conditions: 20 μl from 1 mg/ml stock per disc, 37° C., 24 h, "0" indicates no antibacterial activity. As to the method:
as §1, §2

Data set [4] can be described thus: In-vitro toxicity, MTT assay. In kind it is cell-based, mouse. Conditions: mouse, wild-type mouse embryonic fibroblast cells (WTMEFs), read-out: Cytotoxicity IC50; for IC50 at 2 h: 2 h treatment; for IC50 at 24 h: 24 h treatment. As to the method:
(§3) In a preferred embodiment, nigericin and compounds of formula I are tested for toxicity on Wild type mouse fibroblast cell lines using 3-(4,5-dimethylthiazol-2-yl)-2,5-diphenyltetrazolium bromide assay (MTT assay).
(§4) Wild-type mouse fibroblast cell line (WTMEFs) was used to assess the toxicity associated with nigericin and its fluorinated analogues for the viability using 3-(4,5-dimethylthiazol-2-yl)-2,5-diphenyltetrazolium bromide assay (MTT assay). WTMEFs cell line was seeded in 96-well plates at a density of 5000 cells per well in […] DMEM media containing 10% FBS. The cell lines were incubated for 24 h in a CO2 incubator at 37° C. After 24 h, the drug was added at a concentration of […] and incubated for 2 h and 24 h. MTT assay was carried out to verify the cell viability after 2 h and 24 h of drug treatment in respective plates. All drug concentration was used in triplicate (n=3).
(Tetrazolium dyes change colour on reduction, which living cells bring about.)

The subject of data set [5] is Wild-type mouse fibroblast cell line (WTMEFs). Put plainly: In-vitro toxicity, MTT assay. Conditions: 24 h treatment, read-out: Cytotoxicity IC50. In kind it is cell-based. As to the method: as §3, §4
The subject of data set [6] is S. aureus. The experiment in a line: Minimum inhibitory concentration by micro-dilution method. In kind it is cell-based. The note with it: Staphylococcus aureus; Gram-positive bacteria S. aureus. Here is the method:
(§5) MIC determination: Minimum inhibitory concentration was determined using micro-dilution method in the 96 well plates. 20 μl from 1 mg/ml stock was mixed with culture to get 66 μg/ml concentration and serially diluted in further well to get a concentration of 33 μg/ml, 16.5 μg/ml and so on, refer FIG. 1.

Data set [7] deals with E. coli. The data set is described as above. In kind it is cell-based. The note with it: Gram-negative organism E. coli; for MIC: Escherichia coli. Here is the method: as §5

≈ marks a conversion by molar mass, not a printed value. Like-named read-outs stand apart in the source and are kept apart here. Some results are limits rather than exact numbers.

For the compound `CO[C@@H]1C[C@@H](C[C@H]2CC[C@H](C)[C@H]([C@@H](C)C(=O)O)O2)O[C@]2(O[C@](C)([C@H]3CC[C@@](C)([C@@H]4O[C@@H]([C@H]5O[C@@](O)(CO)[C@H](C)C[C@@H]5C)C[C@@H]4C)O3)C[C@H]2C)[C@@H]1C` [Nigericin, reference compound], the EC50 in data set [1] is roughly 1000 nM. Moreover, the results for the “Antibacterial activity by disc diffusion method (Zone measured in mm)” value (from here on “Antibacterial activity”) in data set [2] and in data set [3] were 22 mm and 0 mm, respectively. For the same compound, the 50% inhibitory concentration (IC50) at 2 h in data set [4] and in data set [4] (unit mM) was roughly 0.01 mM each time. The IC50 at 24 h in data set [4] and in data set [4] (unit mM) was roughly 0.01 mM in each case. Besides, in data set [5], the IC50 stood at 9.22 µM. Moreover, the MIC in data set [6] came out at 0.3 µM (≈ 0.217 µg/mL). For the same compound, in data set [7], the “Minimum inhibitory concentration (MIC)” value was “did not show any inhibition”.

With `COC1C[C@@H](C[C@H]2CC[C@H](C)C([C@@H](C)C(=O)Nc3ccc(F)cc3)O2)O[C@]2(O[C@](C)(C3CC[C@@](C)(C4OC(C5O[C@@](O)(CO)[C@H](C)C[C@@H]5C)C[C@@H]4C)O3)C[C@H]2C)C1C` (stereo partly drawn) [Analog N-5], the “Antibacterial activity” value was determined as 23 mm in data set [2] and 30 mm in data set [3]. Further, the IC50 at 2 h in data set [4] and in data set [4] (unit mM) was greater than 0.1 mM each time. Besides, the IC50 at 24 h in data set [4] and in data set [4] (unit mM) was 0.0598 mM in each case. Besides, the figures for the MIC in data set [6] and in data set [7] were 5 µM (≈ 4.09 µg/mL) and 0.3 µM (≈ 0.245 µg/mL), respectively.

Turning to `COC1C[C@@H](C[C@H]2CC[C@H](C)C([C@@H](C)C(=O)Nc3ccccc3F)O2)O[C@]2(O[C@](C)(C3CC[C@@](C)(C4OC(C5O[C@@](O)(CO)[C@H](C)C[C@@H]5C)C[C@@H]4C)O3)C[C@H]2C)C1C` (stereo partly drawn) [Analog N-3, (2R)—N-(2-fluorophenyl)-2-((3S,6R)-6-(((2S,4R,5R,7R)-2-((2S,3′S)-5′-((3S,5R,6R)-6-hydroxy-6-(hydroxymethyl)-3,5-dimethyltetrahydro-2H-pyran-2-yl)-2,3′-dimethyloctahydro-[2,2′-bifuran]-5-yl)-9-methoxy-2,4,10-trimethyl-1,6-dioxaspiro[4.5]decan-7-yl)methyl)-3-methyltetrahydro-2H-pyran-2-yl)propanamide], the “Antibacterial activity” value in data set [2] is reported as 31 mm; in data set [3], 33 mm. The IC50 at 2 h in data set [4] and in data set [4] (unit mM) was greater than 0.1 mM each time. In addition, the IC50 at 24 h in data set [4] and in data set [4] (unit mM) was 0.0669 mM each time. Also, the MIC in data set [6] was 2.5 µM (≈ 2.05 µg/mL); in data set [7] it was 0.3 µM (≈ 0.245 µg/mL).

Take `COC1C[C@@H](C[C@H]2CC[C@H](C)C([C@@H](C)C(=O)Oc3ccccc3)O2)O[C@]2(O[C@](C)(C3CC[C@@](C)(C4OC(C5O[C@@](O)(CO)[C@H](C)C[C@@H]5C)C[C@@H]4C)O3)C[C@H]2C)C1C` (stereo partly drawn) [Analog N-1, phenyl (2R)-2-((3S,6R)-6-(((2S,4R,5R,7R)-2-((2S,3′S)-5′-((3S,5R,6R)-6-hydroxy-6-(hydroxymethyl)-3,5-dimethyltetrahydro-2H-pyran-2-yl)-2,3′-dimethyloctahydro-[2,2′-bifuran]-5-yl)-9-methoxy-2,4,10-trimethyl-1,6-dioxaspiro[4.5]decan-7-yl)methyl)-3-methyltetrahydro-2H-pyran-2-yl)propanoate]: the “Antibacterial activity” value in data set [2] and in data set [3] was 0 mm throughout.

Regarding `COc1ccc(OC(=O)[C@H](C)C2O[C@@H](C[C@@H]3CC(OC)C(C)[C@]4(O3)O[C@](C)(C3CC[C@@](C)(C5OC(C6O[C@@](O)(CO)[C@H](C)C[C@@H]6C)C[C@@H]5C)O3)C[C@H]4C)CC[C@@H]2C)cc1` (stereo partly drawn) [Analog N-2], the “Antibacterial activity” value in data set [2] and in data set [3] was 0 mm throughout.

Usually IC50 stands for the midpoint of a concentration-inhibition curve. The MIC is the least concentration at which growth counts as inhibited. A low value points to a more susceptible organism.
